{"source": "ChEMBL document CHEMBL5518238", "about": "“Structure-Activity Relationship (SAR) Studies of Novel Monovalent AR/AR-V7 Dual Degraders with Potent Efficacy against Advanced Prostate Cancer” (J Med Chem, 2024)", "key": {"CWR22R [1]": {"tested_on": "CWR22R", "test": "Downregulation of STEAP4 mRNA expression in human 22Rv1 cells at 10 uM incubated for 24 hrs by qRT-PCR analysis", "assay_type": "functional, cell-based"}, "[2]": {"test": "MRT (0 to t) in Sprague-Dawley rat at 50 mg/kg, po by LC-MS/MS analysis", "assay_type": "ADME, organism-based", "settings": "in vivo"}, "[3]": {"test": "Half life in Sprague-Dawley rat at 50 mg/kg, po by LC-MS/MS analysis", "assay_type": "ADME, organism-based", "settings": "in vivo"}, "[4]": {"target": "T1, Androgen receptor (Homo sapiens) (UniProt P10275)", "T1 sequence (whole entry)": "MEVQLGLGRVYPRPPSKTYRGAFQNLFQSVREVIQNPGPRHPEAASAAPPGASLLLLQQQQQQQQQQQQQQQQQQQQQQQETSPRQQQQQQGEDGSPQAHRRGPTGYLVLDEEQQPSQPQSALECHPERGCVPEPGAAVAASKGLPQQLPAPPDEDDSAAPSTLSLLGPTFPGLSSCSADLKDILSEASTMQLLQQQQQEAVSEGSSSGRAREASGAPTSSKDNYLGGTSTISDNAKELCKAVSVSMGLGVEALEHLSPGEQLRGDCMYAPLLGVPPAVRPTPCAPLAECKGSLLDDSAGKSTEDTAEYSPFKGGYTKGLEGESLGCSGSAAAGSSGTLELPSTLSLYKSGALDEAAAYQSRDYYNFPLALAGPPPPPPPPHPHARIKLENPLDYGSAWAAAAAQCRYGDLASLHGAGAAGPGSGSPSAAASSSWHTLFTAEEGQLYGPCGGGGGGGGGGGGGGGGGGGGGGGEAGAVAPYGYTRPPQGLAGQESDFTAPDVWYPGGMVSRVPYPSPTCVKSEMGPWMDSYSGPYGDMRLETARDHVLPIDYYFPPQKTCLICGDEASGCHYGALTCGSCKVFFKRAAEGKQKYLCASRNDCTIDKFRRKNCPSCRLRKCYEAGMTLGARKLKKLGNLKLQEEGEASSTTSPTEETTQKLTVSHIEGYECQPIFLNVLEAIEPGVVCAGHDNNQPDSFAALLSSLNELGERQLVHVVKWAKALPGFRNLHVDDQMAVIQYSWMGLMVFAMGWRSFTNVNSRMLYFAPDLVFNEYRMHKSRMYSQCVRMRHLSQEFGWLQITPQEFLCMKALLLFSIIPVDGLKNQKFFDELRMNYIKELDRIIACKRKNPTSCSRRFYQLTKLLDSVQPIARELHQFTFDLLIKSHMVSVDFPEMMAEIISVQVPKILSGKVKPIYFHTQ", "test": "(§1) Induction of AR degradation in human 22Rv1 cells incubated for 24 hrs by Western blot analysis", "assay_type": "cell-based", "settings": "dose 1-10 µM"}, "Androgen receptor [5]": {"target": "T2, Androgen receptor (Homo sapiens, UniProt P10275)", "T2 sequence (P10275 whole entry)": "T1 sequence (whole entry)", "test": "as §1", "assay_type": "cell-based"}, "CWR22R [6]": {"tested_on": "CWR22R", "test": "Downregulation of MYC mRNA expression in human 22Rv1 cells at 10 uM incubated for 24 hrs by qRT-PCR analysis", "assay_type": "functional, cell-based"}, "CWR22R [7]": {"tested_on": "CWR22R", "test": "Downregulation of ACSL3 mRNA expression in human 22Rv1 cells at 10 uM incubated for 24 hrs by qRT-PCR analysis", "assay_type": "functional, cell-based"}, "CWR22R [8]": {"tested_on": "CWR22R", "test": "Induction of apoptosis in human 22Rv1 cells at 1 uM incubated for 24 hrs by Annexin V-FITC/PI staining based flow cytometric analysis (reference value: 3.70 %)", "assay_type": "functional"}, "CWR22R [9]": {"tested_on": "CWR22R", "test": "Drug localization in nucleus of human 22Rv1 cells at 5 uM incubated for 24 hrs by DAPI staining based immunofluorescence analysis", "assay_type": "functional, cell-based"}, "CWR22R [10]": {"tested_on": "CWR22R", "test": "Downregulation of AR-V7 expression in human 22Rv1 cells at 5 uM incubated for 24 hrs by Western blot analysis", "assay_type": "functional, cell-based"}, "[11]": {"test": "Toxicity in NSG mouse xenografted with human 22Rv1 cells assessed as heart damage t at 30 mg/kg, IG administered once daily for 21 days by H and E staining based analysis", "assay_type": "organism-based, CWR22R", "settings": "in vivo, po, 504 h, time 21 day"}, "[12]": {"target": "T1, Androgen receptor (Homo sapiens)", "test": "Induction of AR degradation in human 22Rv1 cells at 10 uM incubated for 24 hrs in presence of MDM2 by Western blot analysis", "assay_type": "cell-based"}, "CWR22R [13]": {"tested_on": "CWR22R", "test": "Antitumor activity against human 22Rv1 cells xenografted in NSG mouse assessed as tumor growth inhibition at 30 mg/kg, IG administered once daily for 21 days", "assay_type": "functional", "settings": "22Rv1, po, 504 h, time 21 day, read-out: TGI"}, "[14]": {"test": "Toxicity in NSG mouse xenografted with human 22Rv1 cells assessed as effect on body weight at 30 mg/kg, IG administered once daily for 21 days", "assay_type": "organism-based, CWR22R", "settings": "in vivo, po, 504 h, time 21 day"}, "CWR22R [15]": {"tested_on": "CWR22R", "test": "cells", "assay_type": "functional, cell-based", "settings": "Homo sapiens, 22Rv1, 48 h", "description": "Antiproliferative activity against AR/AR-V7 positive human 22Rv1 cells assessed as inhibition of cell growth incubated for 48 hrs by CCK-8 assay"}, "[16]": {"test": "Volume of distribution at steady state in Sprague-Dawley rat at 5 mg/kg, iv by LC-MS/MS analysis", "assay_type": "ADME, organism-based", "settings": "in vivo"}, "[17]": {"tested_on": "Androgen receptor (Homo sapiens), P10275 [UNDEFINED MUTATION]", "test": "Induction of AR-V7 degradation in human 22Rv1 cells at 10 uM incubated for 24 hrs in presence of CHX by Western blot analysis", "assay_type": "cell-based"}, "CWR22R [18]": {"tested_on": "CWR22R", "test": "Downregulation of BARD1 mRNA expression in human 22Rv1 cells at 10 uM incubated for 24 hrs by qRT-PCR analysis", "assay_type": "functional, cell-based"}, "CWR22R [19]": {"tested_on": "CWR22R", "test": "Downregulation of KLK3 mRNA expression in human 22Rv1 cells incubated for 24 hrs by qRT-PCR analysis", "assay_type": "functional, cell-based", "settings": "dose 5-10 µM"}, "[20]": {"test": "Antiproliferative activity against human L02 cells assessed as inhibition of cell growth incubated for 48 hrs by CCK-8 assay", "assay_type": "toxicity, cell-based"}, "[21]": {"tested_on": "Androgen receptor (Homo sapiens), P10275 [UNDEFINED MUTATION]", "test": "(§2) Induction of AR-V7 degradation in human 22Rv1 cells incubated for 24 hrs by Western blot analysis", "assay_type": "cell-based", "settings": "dose 1-10 µM"}, "Androgen receptor [22]": {"target": "Androgen receptor (Homo sapiens, UniProt P10275)", "test": "as §2", "assay_type": "cell-based"}, "CWR22R [23]": {"tested_on": "CWR22R", "test": "Downregulation of NKX3-1 mRNA expression in human 22Rv1 cells at 10 uM incubated for 24 hrs by qRT-PCR analysis", "assay_type": "functional, cell-based"}, "[24]": {"test": "AUC (0 to t) in Sprague-Dawley rat at 5 mg/kg, iv by LC-MS/MS analysis", "assay_type": "ADME, organism-based", "settings": "in vivo"}, "[25]": {"tested_on": "Androgen receptor (Homo sapiens), P10275 [UNDEFINED MUTATION]", "test": "Binding affinity to AR-V7 (unknwon origin) assessed as thermal stabilization at 10 uM incubated for 2 hrs by CETSA analysis", "assay_type": "cell-based", "settings": "22Rv1"}, "CWR22R [26]": {"tested_on": "CWR22R", "test": "Downregulation of ABHD2 mRNA expression in human 22Rv1 cells at 10 uM incubated for 24 hrs by qRT-PCR analysis", "assay_type": "functional, cell-based"}, "CWR22R [27]": {"tested_on": "CWR22R", "test": "Downregulation of PEG3 mRNA expression in human 22Rv1 cells at 10 uM incubated for 24 hrs by qRT-PCR analysis", "assay_type": "functional, cell-based"}, "[28]": {"test": "MRT (0 to infinity) in Sprague-Dawley rat at 50 mg/kg, po by LC-MS/MS analysis", "assay_type": "ADME, organism-based", "settings": "in vivo"}, "[29]": {"target": "T1, Androgen receptor (Homo sapiens)", "test": "Induction of AR degradation in human 22Rv1 cells at 10 uM incubated for 24 hrs in presence of CHX by Western blot analysis", "assay_type": "cell-based"}, "[30]": {"tested_on": "Androgen receptor (Homo sapiens), P10275 [UNDEFINED MUTATION]", "test": "Induction of AR-V7 degradation in human 22Rv1 cells at 10 uM incubated for 24 hrs in presence of […] by Western blot analysis", "assay_type": "cell-based"}, "CWR22R [31]": {"tested_on": "CWR22R", "test": "Induction of apoptosis in human 22Rv1 cells assessed as effect on Bcl-2 level incubated for 24 hrs by Western blot analysis", "assay_type": "functional, cell-based", "settings": "dose <= 10.0 µM"}}, "note": "The source made the active and inactive calls. No cut-off for these calls is given here."}
{"smiles": "CC1(C)C(=O)N(c2ccc(C#N)c(C(F)(F)F)c2)C(=O)N1CCNc1ccc(F)c2ncccc12", "values": [{"measurement": "Activity", "setting": "CWR22R [1]", "result": "Active"}, {"measurement": "MRT last", "setting": "[2]", "result": 3.2, "unit": "h"}, {"measurement": "half-life", "setting": "[3]", "result": 132, "unit": "min"}, {"measurement": "Activity", "setting": "[4]", "result": "Dose-Dependent Effect"}, {"measurement": "DC50", "setting": "Androgen receptor [5]", "result": 2670, "unit": "nM"}, {"measurement": "Activity", "setting": "CWR22R [6]", "result": "Active"}, {"measurement": "Activity", "setting": "CWR22R [7]", "result": "Active"}, {"measurement": "Activity", "setting": "CWR22R [8]", "result": 11.94, "unit": "%"}, {"measurement": "Activity", "setting": "CWR22R [9]", "result": "Active"}, {"measurement": "Activity", "setting": "CWR22R [10]", "result": "Active"}, {"measurement": "Activity", "setting": "[11]", "result": "Non-Toxic"}, {"measurement": "Activity", "setting": "[12]", "result": "Active"}, {"measurement": "inhibition in vivo at 30 mg/kg", "setting": "CWR22R [13]", "result": 63, "unit": "%"}, {"measurement": "Activity", "setting": "[14]", "result": "Non-Toxic"}, {"measurement": "IC50", "setting": "CWR22R [15]", "result": 900, "unit": "nM"}, {"measurement": "Vdss", "setting": "[16]", "result": 2.5, "unit": "L/kg"}, {"measurement": "Activity", "setting": "[17]", "result": "Active"}, {"measurement": "Activity", "setting": "CWR22R [18]", "result": "Active"}, {"measurement": "Activity", "setting": "CWR22R [19]", "result": "Dose-Dependent Effect"}, {"measurement": "IC50 at 48 h", "setting": "[20]", "result": "> 100", "unit": "µM"}, {"measurement": "Activity", "setting": "[21]", "result": "Dose-Dependent Effect"}, {"measurement": "DC50", "setting": "Androgen receptor [22]", "result": 2640, "unit": "nM"}, {"measurement": "Activity", "setting": "CWR22R [23]", "result": "Active"}, {"measurement": "AUC(0-t)", "setting": "[24]", "result": 2870, "unit": "ng·h/mL"}, {"measurement": "Activity", "setting": "[25]", "result": "inactive"}, {"measurement": "Activity", "setting": "CWR22R [26]", "result": "Active"}, {"measurement": "Activity", "setting": "CWR22R [27]", "result": "Active"}, {"measurement": "MRT inf", "setting": "[28]", "result": 4.1, "unit": "h"}, {"measurement": "Activity", "setting": "[29]", "result": "Active"}, {"measurement": "Activity", "setting": "[30]", "result": "Active"}, {"measurement": "Activity", "setting": "CWR22R [31]", "result": "Dose-Dependent Effect"}]}
